Article PMC12564223, “UHPLC-QTOF-ESI-MS/MS, SNAP-MS Identification, In Silico Prediction of Pharmacokinetic Properties of Constituents from the Stem Bark of Holarrhena floribunda (G. Don) T. Durand and Schinz (Apocynaceae)” (Biomolecules, 2025)
Like-named read-outs stand apart in the source and are kept apart here.

How the values were obtained:
[1] = system: P. falciparum Dd2 (multidrug-resistant); test: Plasmodium falciparum growth inhibition assay (SYBR green I), Dd2 strain; format: cell-based; details: for IC50: Plasmodium falciparum, read-out: IC50/PfDd2
[2] = system: P. falciparum 3D7 (Chloroquine-sensitive); test: Plasmodium falciparum growth inhibition assay (SYBR green I), 3D7 strain; format: cell-based; details: read-out: IC50/Pf3D7
[3] = system: Plasmodium falciparum K1 (multi-resistant); set-up: method as in PMID 29172699; details: Pf K1; ref [18]; cited from earlier work
[4] = system: Plasmodium falciparum FCB1 (chloroquine-resistant); set-up: method as in PMID 15863333; details: Pf FCB1; ref [17]; cited from earlier work
[5] = system: human cervix carcinoma KB-3-1 cancer cell lines
[6] = system: human cervix carcinoma KB-3-1 cancer cell lines; test: Cytotoxicity on KB-3-1 cells; details: called IC50 in the text
[7] = DD2, compounds and reference drugs, 72 h incubation
[8] = 3D7, compounds and reference drugs, 72 h incubation

Compound	RI: [IC50PfDd2/IC50Pf3D7] ([1]; Resistance Index)	IC50 ([1]; DD2, 72 h)	IC50 ([2]; 3D7, 72 h)	IC50 [3]	also measured
C[C@@H]1CC[C@H]2[C@@H](C)C(=O)O[C@@H]3O[C@@]4(C)CC[C@@H]1[C@]32OO4 [Artemisinin, reference compound]	0.71				IC50 [1, 7]: 0.025 ± 0.006 µM; IC50 [2, 8]: 0.035 µM
CCN(CC)CCCC(C)Nc1ccnc2cc(Cl)ccc12 (centres unmarked) [Chloroquine, reference compound]		0.73 ± 0.09 µM	0.045 ± 0.003 µM		RI: [IC50PfDd2/IC50Pf3D7] [1]: 16.22
CC1N=CC23CCC4C(CC=C5CC(N)CCC54C)C2CCC13 (centres unmarked) [compound 3, Irheline]				1.2 µM	IC50 [1, 7]: > 50 µM; IC50 [2, 8]: > 50 µM
CNC1CCC2(C)C(=CCC3C2CCC24CNC(C)C2CCC34)C1 (centres unmarked) [compound 4, Conimin/conamine]				8 µM	
C[C@H]1[C@H]2CC[C@H]3[C@@H]4CC=C5C[C@@H](N(C)C)CC[C@]5(C)[C@H]4CC[C@]23CN1C [compound 5, Conessine]	1.09	28.5 ± 0.704 µM	26 ± 0.43 µM		IC50 [4]: 1040 nM
CC(C)=CCC(=O)O[C@@H]1C[C@H]2[C@@H](CC=C3C[C@@H](N(C)C)CC[C@@]32C)[C@@H]2CC[C@@H]3[C@H](C)N(C)C[C@]312 [compound 10, Holarrhetine]					IC50 [4]: 1130 ± 320 nM
CNC1CCC2(C)C(=CCC3C2CC(OC(=O)CC=C(C)C)C24CN(C)C(C)C2CCC34)C1 (centres unmarked) [compound 11, Holarrhesine]					IC50 [4]: 970 ± 110 nM
CC(=O)C1CCC2C3CC=C4CC(N)CCC4(C)C3CCC12C (centres unmarked) [compound 14, Holaphyllamine]	1.12	55.8 ± 9.75 µM	49.5 ± 4.83 µM		CC50 on KB-3-1 [5]: 9.8 µM
CC(O)C1CCC2C3CC=C4CC(N)CCC4(C)C3CCC12C (centres unmarked) [compound 15, Holaphyllaminol]				11.7 µM	
CNC1CCC2(C)C(=CCC3C2CCC2(C)C(C(C)=O)CCC32)C1 (centres unmarked) [compound 16, N-methylholaphyllamine]				10.6 µM	
CCOC(=O)c1c(C)cc(O)cc1O [compound 26, ethylorsalinate]					IC50 [1, 7]: > 50 µM; IC50 [2, 8]: > 50 µM
COc1cc(C)c2c(=O)c3c(O)cc(OC)cc3oc2c1 [compound 27, lichexanthone]	1.09	36.5 ± 1.39 µM	33.4 ± 1.2 µM		
Cryptophycin					CC50 on KB-3-1 [6]: 1.3 × 10^−5 μM µM; CC50 on KB-3-1 ([6]; listed as cryptophycin): 1.3e-05 µM
